Among the data in patent US7563805B2, “Tri-, tetra-substituted-3-aminopyrrolidine derivative” (Daiichi Pharmaceutical Co., Ltd., priority 2005, dated 2009) are MIC, melting point and inhibition values, retold here.

The test system of data set [1] is P. aeruginosa, 32121. The experiment in a line: antibacterial activity (MIC), standard method of Japanese Society of Chemotherapy. To be noted: Pseudomonas aeruginosa.
The test system of data set [2] is S. pneumoniae, J24 (penicillin-intermediate resistant bacteria). Described as above. To be noted: Streptococcus pneumoniae.
In data set [3] the test system is E. faecalis, ATCC 19433. The description is as above. To be noted: Enterococcus faecalis, ATCC19433, E. faecalis.
Data set [4] relates to S. marscecens, 10100. The data set is described as above.
Data set [5] deals with S. aureus, 87037 (LVFX-resistant MRSA). The description is as above. To be noted: Staphylococcus aureus, MRSA, S. aureus, 87037 (LVFX-resistant MRSA).
Data set [6] relates to S. epidermidis, 56500. The data set is described as above. To be noted: Staphylococcus epidermidis, 56500, S. epidermidis.
In data set [7] the test system is P. aeruginosa, 32104. The data set is described as above. To be noted: Pseudomonas aeruginosa.
The test system of data set [8] is S. aureus, 209P. The data set is described as above. To be noted: Staphylococcus aureus.
Data set [9] relates to P. vulgaris, 08601. Described as above. The conditions noted are these: Proteus vulgaris, 08601, P. vulgaris.
Data set [10] concerns E. coli NIHJ. The data set is described as above. The conditions noted are these: Escherichia coli.
Data set [11] addresses hERG K+ channel (Homo sapiens, UniProt Q12809). Nature of the data set: hERG-K^+ channel blocking effect.
Data set [12] relates to Mycobacterium tuberculosis (quinolone sensitive). Nature of the data set: anti-Mycobacterium tuberculosis (quinolone sensitive) activity, MIC. Format: cell-based.
Data set [13] relates to Mycobacterium tuberculosis (sensitive bacteria). Nature of the data set: anti-Mycobacterium tuberculosis (sensitive bacteria) activity, MIC. In kind it is cell-based.

≈ marks a conversion by molar mass, not a printed value. Bounds are passed on as bounds.

Chain of hERG K+ channel (Q12809 whole entry): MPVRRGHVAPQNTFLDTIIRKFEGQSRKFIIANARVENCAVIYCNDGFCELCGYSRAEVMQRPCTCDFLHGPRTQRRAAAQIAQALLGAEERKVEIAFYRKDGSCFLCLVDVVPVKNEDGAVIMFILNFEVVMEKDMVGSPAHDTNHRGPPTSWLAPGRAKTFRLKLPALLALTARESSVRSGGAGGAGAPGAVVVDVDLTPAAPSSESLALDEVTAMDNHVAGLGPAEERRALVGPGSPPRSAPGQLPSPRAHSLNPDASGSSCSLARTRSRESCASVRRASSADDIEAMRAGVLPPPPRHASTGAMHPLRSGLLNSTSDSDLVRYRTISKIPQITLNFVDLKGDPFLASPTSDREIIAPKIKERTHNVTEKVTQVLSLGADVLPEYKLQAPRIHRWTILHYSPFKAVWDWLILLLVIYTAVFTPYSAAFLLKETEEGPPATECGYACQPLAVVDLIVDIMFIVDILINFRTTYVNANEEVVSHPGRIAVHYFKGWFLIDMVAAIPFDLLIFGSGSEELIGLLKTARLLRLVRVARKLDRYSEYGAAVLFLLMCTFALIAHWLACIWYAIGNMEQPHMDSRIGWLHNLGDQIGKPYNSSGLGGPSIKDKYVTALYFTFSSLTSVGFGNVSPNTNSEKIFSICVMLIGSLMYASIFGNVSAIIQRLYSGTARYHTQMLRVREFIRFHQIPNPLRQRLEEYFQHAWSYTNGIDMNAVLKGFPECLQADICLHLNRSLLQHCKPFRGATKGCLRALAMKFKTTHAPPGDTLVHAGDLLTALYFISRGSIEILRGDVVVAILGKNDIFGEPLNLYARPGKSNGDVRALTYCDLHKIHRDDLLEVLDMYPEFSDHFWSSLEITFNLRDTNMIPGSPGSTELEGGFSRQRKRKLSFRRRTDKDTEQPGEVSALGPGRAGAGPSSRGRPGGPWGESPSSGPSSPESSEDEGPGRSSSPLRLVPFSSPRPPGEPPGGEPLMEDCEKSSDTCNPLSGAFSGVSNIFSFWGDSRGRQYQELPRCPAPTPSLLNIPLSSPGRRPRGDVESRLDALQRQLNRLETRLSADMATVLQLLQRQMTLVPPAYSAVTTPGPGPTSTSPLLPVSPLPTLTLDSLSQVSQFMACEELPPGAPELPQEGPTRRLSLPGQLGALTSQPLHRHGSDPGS

Take `COc1c(N2CC(C)C(C)(N)C2)c(F)cc2c(=O)c(C(=O)O)cn([C@@H]3C[C@@H]3F)c12` (relative stereo) [Example 1, 7-[(3R*,4S*)-3-Amino-3,4-dimethylpyrrolidin-1-yl]-6-fluoro-1-[(1R,2S)-2-fluorocyclopropyl]-8-methoxy-1,4-dihydro-4-oxoguinoline-3-carboxylic acid]: the minimum inhibitory concentration (MIC) in data set [1] came to 0.2 mg/L (≈ 0.491 µM); in [2], 0.1 mg/L (≈ 0.245 µM); in [3] it was 0.2 mg/L (≈ 0.491 µM); in [4], 0.2 mg/L (≈ 0.491 µM); in [5], 0.78 mg/L (≈ 1.91 µM); in data set [6], 0.1 mg/L (≈ 0.245 µM). Further, the MIC is 0.39 mg/L (≈ 0.957 µM) in data set [7], 0.025 mg/L (≈ 0.0614 µM) in data set [8], 0.05 mg/L (≈ 0.123 µM) in data set [9] and 0.025 mg/L (≈ 0.0614 µM) in [10].
On to `CCC1CN(c2c(F)cc3c(=O)c(C(=O)O)cn([C@@H]4C[C@@H]4F)c3c2OC)CC1(C)N` (relative stereo) [Example 14, 7-[(3R*,4R*)-3-Amino-4-ethyl-3-methylpyrrolidin-1-yl]-6-fluoro-1-[(1R,2S)-2-fluorocyclopropyl]-8-methoxy-1,4-dihydro-4-oxoquinoline-3-carboxylic acid], for which the melting point lay within 167 to 169 °C.
`COc1c(N2CC(F)[C@](C)(N)C2)c(F)cc2c(=O)c(C(=O)O)cn([C@@H]3C[C@@H]3F)c12` (single isomer, unassigned) [Example 25] returned a melting point of 160 to 163 °C. Further, in data set [11], the inhibition at 30 µM was found to be 2 ± 7.2%, the inhibition at 100 µM is 4.2 ± 7.9% and the inhibition at 300 µM turned out to be 17.1 ± 14.4%.
The compound `COc1c(N2CC(F)[C@](C)(N)C2)c(F)cc2c(=O)c(C(=O)O)cn([C@@H]3C[C@@H]3F)c12` (single isomer, unassigned) [Example 26] returned a melting point of 206 to 208 °C.
Compound `COc1c(N2CC(OC)C(C)(N)C2)c(F)cc2c(=O)c(C(=O)O)cn([C@@H]3C[C@@H]3F)c12` (stereo partly drawn) [Example 18, 7-(3-Amino-4-methoxy-3-methylpyrrolidine-1-yl)-6-fluoro-1-[(1R,2S)-2-fluorocyclopropyl]-8-methoxy-1,4-dihydro-4-oxoquinoline-3-carboxylic acid] displayed a melting point of 150 to 151 °C.
The same measure, in the same setting: the figure for `COc1c(N2CC(OC)C(C)(N)C2)c(F)cc2c(=O)c(C(=O)O)cn([C@@H]3C[C@@H]3F)c12` (stereo partly drawn) [Example 19, 7-(3-Amino-4-methoxy-3-methylpyrrolidine-1-yl)-6-fluoro-1-[(1R,2S)-2-fluorocyclopropyl]-8-methoxy-1,4-dihydro-4-oxoquinoline-3-carboxylic acid] is 162 to 163 °C.
As to `COc1c(N2C[C@H](CF)[C@](C)(N)C2)c(F)cc2c(=O)c(C(=O)O)cn([C@@H]3C[C@@H]3F)c12` [Example 20, 7-[(3S,4S)-3-Amino-4-fluoromethyl-3-methylpyrrolidin-1-yl]-6-fluoro-1-[(1R,2S)-2-fluoro-1-cyclopropyl]-8-methoxy-1,4-dihydro-4-oxoquinoline-3-carboxylic acid], the melting point fell in the range of 187 to 189 °C. Further, in data set [11], the inhibition at 30 µM is 1.4 ± 4.5%, testing at 100 µM gave an inhibition of 8.5 ± 6.1% and the inhibition at 300 µM amounted to 14.5 ± 6%.
Compound `Cc1c(N2C[C@H](CF)[C@](C)(N)C2)c(F)cc2c(=O)c(C(=O)O)cn(C3CC3)c12` [Example 23, 7-[(3S,4S)-3-Amino-4-fluoromethyl-3-methylpyrrolidin-1-yl]-1-cyclopropyl-6-fluoro-8-methyl-1,4-dihydro-4-oxoquinoline-3-carboxylic acid] came in with a melting point of 212 to 215 °C. In data set [11], this compound had an inhibition at 30 µM of 3 ± 4.1%, an inhibition at 100 µM of 4.6 ± 4.7% and an inhibition at 300 µM of 16.7 ± 8.4%. 0.05 mg/L (≈ 0.128 µM) was the least that counted as inhibitory in [1] (MIC). The same compound yielded an MIC in data set [2] of 0.05 mg/L (≈ 0.128 µM). For the same compound, in [3], the MIC worked out at 0.1 mg/L (≈ 0.255 µM). In addition, the MIC in data set [4] stood at 0.05 mg/L (≈ 0.128 µM). The compound also showed an MIC in data set [5] of 0.39 mg/L (≈ 0.996 µM). Further, in data set [6], the MIC came out at 0.05 mg/L (≈ 0.128 µM). This compound also came in with an MIC in [8] of 0.025 mg/L (≈ 0.0639 µM). Also, 0.006 mg/L (≈ 0.0153 µM) was the least that counted as inhibitory in data set [9] (MIC). This compound also gave an MIC in [10] of at most 0.003 mg/L.
Consider `COc1c(N2C[C@@H](CF)[C@@](C)(N)C2)c(F)cc2c(=O)c(C(=O)O)cn([C@@H]3C[C@@H]3F)c12` [Example 24, 7-[(3R,4R)-3-Amino-4-fluoromethyl-3-methylpyrrolidin-1-yl]-6-fluoro-1-[(1R,2S)-2-fluoro-1-cyclopropyl]-8-methoxy-1,4-dihydro-4-oxoquinoline-3-carboxylic acid], for which the melting point fell in the range of 185 to 188 °C.
Compound `COc1c(N2CC(C)[C@@](N)(CF)C2)c(F)cc2c(=O)c(C(=O)O)cn([C@@H]3C[C@@H]3F)c12` (stereo partly drawn) [Example 28, 7-[(3S)-3-Amino-3-fluoromethyl-4-methylpyrrolidin-1-yl]-6-fluoro-1-[(1R,2S)-2-fluoro-1-cyclopropyl]-8-methoxy-1,4-dihydro-4-oxoquinoline-3-carboxylic acid] registered a melting point of 167 to 169 °C. The compound further returned an MIC in [1] of 0.39 mg/L (≈ 0.917 µM). Besides, the MIC in data set [2] amounted to 0.1 mg/L (≈ 0.235 µM). Also, the MIC in data set [3] came out at 0.2 mg/L (≈ 0.47 µM). The compound further came in with an MIC in data set [4] of 0.39 mg/L (≈ 0.917 µM). This compound came in with an MIC in data set [5] of 0.2 mg/L (≈ 0.47 µM). For the same compound, in data set [6], the MIC is 0.05 mg/L (≈ 0.118 µM). For the same compound, in data set [8], the MIC worked out at 0.025 mg/L (≈ 0.0588 µM). In addition, 0.05 mg/L (≈ 0.118 µM) was the least that counted as inhibitory in data set [9] (MIC). This compound registered an MIC in [10] of 0.025 mg/L (≈ 0.0588 µM).
Consider `Cc1c(N2CC(C)[C@@](N)(CF)C2)c(F)cc2c(=O)c(C(=O)O)cn([C@@H]3C[C@@H]3F)c12` (stereo partly drawn) [Example 31, 7-[(3S)-3-Amino-3-fluoromethyl-4-methylpyrrolidin-1-yl]-6-fluoro-1-[(1R,2S)-2-fluoro-1-cyclopropyl]-8-methyl-1,4-dihydro-4-oxoquinoline-3-carboxylic acid], for which the melting point was in the range of 200 to 203 °C. Besides, the MIC in data set [1] worked out at 0.05 mg/L (≈ 0.122 µM). This compound also showed an MIC in [2] of 0.05 mg/L (≈ 0.122 µM). For the same compound, 0.1 mg/L (≈ 0.244 µM) was the least that counted as inhibitory in data set [3] (MIC). Moreover, 0.1 mg/L (≈ 0.244 µM) was the least that counted as inhibitory in data set [4] (MIC). The same compound registered an MIC in data set [5] of 0.1 mg/L (≈ 0.244 µM). Moreover, it took 0.025 mg/L (≈ 0.0611 µM) to inhibit growth in data set [6] (MIC). Further, the MIC in data set [8] came out at 0.012 mg/L (≈ 0.0293 µM). Moreover, the lowest concentration to inhibit growth in [9] (MIC) was 0.012 mg/L (≈ 0.0293 µM). The same compound registered an MIC in data set [10] of 0.006 mg/L (≈ 0.0147 µM).
Regarding `CO[C@H]1/C=C/O[C@@]2(C)Oc3c(C)c(O)c4c(O)c(c(/C=N/N5CCN(C)CC5)c(O)c4c3C2=O)NC(=O)/C(C)=C\C=C\[C@H](C)[C@H](O)[C@@H](C)[C@@H](O)[C@@H](C)[C@H](OC(C)=O)[C@@H]1C` [RFP, Rifampicin], the MIC was above 128 mg/L in data set [12] (strain 1 (QR-3)); above 128 mg/L in data set [12] (strain 2 (QR-6)); 128 mg/L (≈ 156 µM) in data set [12] (strain 3 (QR-1)); above 128 mg/L in data set [12] (strain 4 (QR-9)); 16 mg/L (≈ 19.4 µM) in [12] (strain MDR 1); 128 mg/L (≈ 156 µM) in data set [12] (strain MDR 3). Besides, the minimum inhibitory concentration (MIC) in [12] (strain MDR 4) is 64 mg/L (≈ 77.8 µM); in data set [12] (strain MDR 5) it was 32 mg/L (≈ 38.9 µM); in data set [12] (strain MDR 7), above 128 mg/L; in data set [12] (strain MDR 9), 128 mg/L (≈ 156 µM); in data set [12] (strain MDR 12), 128 mg/L (≈ 156 µM); in [12] (strain S 1), 16 mg/L (≈ 19.4 µM). The MIC in data set [13] (H37RV, strain H37Rv) stood at 0.125 mg/L (≈ 0.152 µM); in [13] (strain Kurono) it was 0.06 mg/L (≈ 0.0729 µM); in data set [13] (strain Ravenel), 0.125 mg/L (≈ 0.152 µM); in data set [13] (strain TB-s 2), 0.03 mg/L (≈ 0.0365 µM); in data set [13] (strain TB-s 3), 0.125 mg/L (≈ 0.152 µM); in [13] (strain TB-s 4), 0.06 mg/L (≈ 0.0729 µM). Moreover, the MIC in [13] (strain TB-s 5) worked out at 0.06 mg/L (≈ 0.0729 µM); in [13] (strain TB-s 6), 0.125 mg/L (≈ 0.152 µM); in data set [13] (strain TB-s 7), 0.06 mg/L (≈ 0.0729 µM); in data set [13] (strain TB-s 8) it was 0.015 mg/L (≈ 0.0182 µM); in data set [13] (strain TB-s 9), 0.06 mg/L (≈ 0.0729 µM); in data set [13] (strain TB-s 10), 0.06 mg/L (≈ 0.0729 µM). For the same compound, the MIC was found to be 0.06 mg/L (≈ 0.0729 µM) in [13] (strain TB-s 11); 0.125 mg/L (≈ 0.152 µM) in [13] (strain TB-s 12); 0.06 mg/L (≈ 0.0729 µM) in data set [13] (strain TB-s 13); 0.03 mg/L (≈ 0.0365 µM) in data set [13] (strain TB-s 14); 0.06 mg/L (≈ 0.0729 µM) in data set [13] (strain TB-s 15); 0.06 mg/L (≈ 0.0729 µM) in data set [13] (strain TB-s 16). The minimal inhibitory concentration (MIC) in data set [13] (strain TB-s 17) worked out at 0.06 mg/L (≈ 0.0729 µM); in data set [13] (strain TB-s 18), 0.03 mg/L (≈ 0.0365 µM); in [13] (strain TB-s 19), 0.125 mg/L (≈ 0.152 µM); in [13] (strain TB-s 20), 0.25 mg/L (≈ 0.304 µM); in data set [13] (strain TB-s 21) it was 0.03 mg/L (≈ 0.0365 µM); in data set [13] (strain TB-s 22), 0.015 mg/L (≈ 0.0182 µM).
